Results published in patent US3932492A, “Process for preparing new amidine compounds” (Kao Soap Co., Ltd., priority 1973, dated 1976).

Test system: Wakin goldfish
Experiment: Toxicity to fish, plant waste water test method (JIS-K-0102-1964)
Assay type: in vivo
Method: The test was carried out according to plant waste water test method (JIS-K-0102-1964). Wakin goldfish was used as the subject.
*A concentration at which half the number of the subjects died within 48
hours. The higher the number of ppm., the lower the toxicity to fish.

Benzalkonium chloride
TLM (concentration at which half the number of the subjects died within 48 hours): 0.87 ppm
